From PMC3466778 (Biochemistry, 2012) come the findings set out here.

By Kd is commonly meant the equilibrium constant for the complex coming apart. Low readings indicate higher affinity, high ones lower affinity.

The target of this test is T1, KcsA (Streptomyces lividans, UniProt P0A334).
T1 sequence (P0A334 1-160): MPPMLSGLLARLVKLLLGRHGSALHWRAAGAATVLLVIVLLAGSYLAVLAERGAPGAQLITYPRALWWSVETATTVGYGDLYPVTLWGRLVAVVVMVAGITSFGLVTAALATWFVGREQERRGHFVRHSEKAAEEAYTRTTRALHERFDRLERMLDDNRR
Description: fluorescence titration. It counts as binding.

`CN(C)c1cccc2c(S(=O)(=O)NCCCCCCCCCCC(=O)O)cccc12` [Dauda]: binding was put at a Kd of 470 ± 100 nM.
